Read-outs that look alike come from different tables or passages of the source.
How the values were obtained:
reverse transcriptase = details: cited from earlier work
HIV-1 = assay: inhibition of HIV-1 replication in PBL (p24 antigen in culture supernatant); format: cell-based; details: for P24 antigen in culture supernatant: drug-free control 372,835 pg/ml
Experimental: The concentration of virus-specificp24 antigen in the culture, and, therefore the ability of each drug to inhibit HIV replication was measured by their ability to inhibit production of the p24 antigen.
Inhibition of HIV-1 replication was determined using PBL from seronegative donors. PBL activated with 2 μg/ml PHA for 72 hrs were washed with medium and 10×10^6 cells were incubated for 4 hr at 37° C. (Mitsuya et al., PNAS USA 82:7096, […]) in 5 ml medium containing the appropriate concentration of the drug. The cells were then infected with 10^4 TCID50 of HIV (isolated CD 451) by the addition of 0.1 ml of virus preparation and gentle rocking of the cultures of 15 min intervals for 90 min at room temperature. The fluid volume was increased to 10ml and the cultures maintained at 37° C. in a humidified 5% CO2 -in-air atmosphere. On day 3 post-infection, half the cell-free fluid in each culture was removed and replaced with fresh medium containing the respective drug. The extent of HIV replication in a control and the experimental cultures was evaluated 7 days post-infection by quantifying the concentration of HIV-specific p24 antigen in an undiluted and 5-fold serial dilutions of the culture supernatants using commercial antigen-capture assay kits (DuPont, Billerica, Mass.). The concentration of HIV-specific p24 antigen in the 7 day supernatant fluid of a drug-free control culture was 372,835 pg/ml.

p24 gag protein of HIV = details: in vitro; Mitsuya et al. 1985; cited from earlier work
[1] = Richman et al. 1987; cited from earlier work
[2] = in vivo; cited from earlier work
[3] = test system: peripheral blood lymphocytes; assay: uptake of radiolabelled drug by peripheral blood lymphocytes (PBL); format: in vitro ADME
Experimental: DP-AZT was therefore tested to determine if the problem of rapid elimination and inadequate permeability could be overcome.
PBL from HIV seronegative donors were also separated by standard Ficol-Hypaque gradient centrifugation. The lymphocytes were grown in RPMI 1640 supplemented with 15% heat-inactivated FBS, 100 U/ml penicillin, 100 μg/ml streptomycin and 2 μg/ml PHA. The cells were incubated for 4 days at 37° C. and uptake studies were done according to the procedure described above for H9 cells.

H9 cells = assay: uptake of radiolabelled drug by H9 cells; format: in vitro ADME; details: for cellular uptake relative to AZT, in words: H9 cells (FIGS. 6, 7)
Experimental: The reaction was stopped by centrifugation at 13,000×g for 1 min. The cell free supernatant was discarded by aspiration and the cell pellet was washed with ice cold PBS to remove any traces of free radioactive drug. The cell pellet was resuspended in PBS and counted for radioactivity in a Tri-carb Packard liquid scintillation analyzer Model 1500 (Packard Instruments Co., Dowers Grove, Ill.) and the percentage of radioactivity was calculated. (All experiments were done in duplicate and repeated at least three times).

AIDS = details: cited from earlier work
[4] = hydrolysis of DP-AZT in mouse bone marrow cells; format: in vitro ADME; details: end of 4 hours of incubation, read-out: hydrolysis of the pro-drug
Experimental: (§1) In contrast, bone marrow cells were able to hydrolyze only 50% of the pro-drug at the end of 4 hours of incubation.
Bone marrow cells were obtained from femurs of 8-week old CD-1 mice. The femurs were removed asceptically and rinsed in RPMI-1640. Bone marrow cells were flushed with medium by using a 19-gauge needle and a single cell suspension was made by pipette action. These cells were used for hydrolytic experiments similar to described above for PBL.

[5] = physical and chemical stability; format: physicochemical
Text: The general pattern of synthesis of DP-AZT is outlined in FIG. 1. Treatment of 3,-azido-2',3'-dideoxythymidine in the presence of DCC and 4-dimethyl amino pyridine in ethyl acetate yield the nicotinyl ester. The ester is then quarternized by refluxing it in acetone with methyl iodide. […] In addition to DP-AZT, other derivatives at the N-methyl site in particular can also be prepared.

[6] = hydrolysis of DP-AZT by human plasma in vitro; format: in vitro ADME; details: up to 4 hours in incubation
mouse bone marrow cells = assay: bone marrow toxicity: inhibition of [3H]-thymidine uptake in murine bone marrow cells; format: cell-based; details: for less inhibition of [3H]-thymidine incorporation into bone marrow cells than AZT: relative to AZT, 60 h exposure, 12 h pulse
Experimental: The percent inhibition of [^3 H]-thymidine uptake was used as an indication of bone marrow toxicity (FIG. 5).
The bone marrow cells were obtained from CD-1 mice as described under Section 6.2.3, supra. Approximately 2×10^5 cells in 100 μl of medium were plated in a 96-well plate, 100 μl of drug solution at various concentrations (0-500 μM) was added, and the plate was incubated at 37° C. for 60 hr. [^3 H]-Thymidine (0.2 μc/well, specific activity 30 c/mmole) was pulsed for 12 hr, and at the end of 72 hr cells were harvested by using Skatron 7019 cell harvester.

[7] = hydrolysis of DP-AZT by rat liver microsomes; format: in vitro ADME; details: 15.5 mg protein/ml, 37° C., 0 to 4 h
Experimental: as §1
To 900 μl of rat liver microsomes containing 15.5 mg protein/ml (Wong et al., Biochem. Pharmacol. 37:473, 1988), 100 μl of DP-AZT (2 mg/ml dissolved in dimethylsulfoxide) was added and incubated at 37° C. in a water bath. At various time intervals (0 to 4 h) 100 μl of sample was withdrawn and added immediately to ice-cold methanol (400 μl).

[8] = test system: peripheral blood lymphocytes; assay: hydrolysis of DP-AZT to AZT in PBL; format: in vitro ADME; details: 500 μM DP-[3H]-AZT, 5×10^5 PBL, 37° C., 4 h
Experimental: as §1
Suspensions of 5×10^5 PBL (100 μl) in Eppendorf tubes were mixed with 100 μl of 500 μM DP-AZT and incubated at 37° C. At various time intervals (0 to 4 hrs), cell pellets were collected after centrifugation at 13,000×g for 1 min, washed with PBS and extracted with ice-cold 0.2 M perchloric acid. The acid extracts were clarified by centrifugation, neutralized with KOH, centrifuged to remove insoluble potassium perchlorate, evaporated to dryness under reduced pressure (Buchler Evapo-Mix apparatus) and constituted with 200 μl of methanol (Zimmerman et al., J. Biol. Chem. 262:5748, 1987).

HIV = details: Yamamoto et al. 1986; cited from earlier work
[9] = test system: retrovirally infected mice; details: Watson et al. 1988; cited from earlier work
[10] = 0.5 μM drug, 7 days post-infection
[11] = 5.0 μM drug, 7 days post-infection
[12] = 10.0 μM drug, 7 days post-infection
[13] = Human immunodeficiency virus 1, PBL, 168 h, 0.5 μM drug, 7 days post-infection, read-out: p24 antigen, % reduction of control
[14] = Human immunodeficiency virus 1, PBL, 168 h, 5.0 μM drug, 7 days post-infection, read-out: p24 antigen, % reduction of control
[15] = Human immunodeficiency virus 1, PBL, 168 h, 10.0 μM drug, 7 days post-infection, read-out: p24 antigen, % reduction of control

Cc1cn([C@H]2C[C@H](N=[N+]=[N-])[C@@H](COP(=O)(O)OP(=O)(O)OP(=O)(O)O)O2)c(=O)[nH]c1=O [AZT triphosphate]
reverse transcriptase inhibition, in words (reverse transcriptase): competitive inhibitor of reverse transcriptase

Cc1cn([C@H]2C[C@H](N=[N+]=[N-])[C@@H](CO)O2)c(=O)[nH]c1=O [AZT, 3'-azido-2',3'-dideoxythymidine, reference compound]
P24 antigen in culture supernatant (HIV-1; [10]): 67,273 pg/ml
P24 antigen in culture supernatant (HIV-1; [11]): 1,758 pg/ml
P24 antigen in culture supernatant (HIV-1; [12]): 2,235 pg/ml
inhibition at 0.5 µM (HIV-1; [13]): 82%
inhibition at 5 µM (HIV-1; [14]): 99.5%
inhibition at 10 µM (HIV-1; [15]): 99.4%
expression of p24 gag protein of HIV, in words (p24 gag protein of HIV): blocks the expression of the p24 gag protein of HIV
major adverse reactions [1]: nausea, myalgia and insomnia
half-life in plasma, in words [2]: very short half-life in plasma
time to maximum intracellular concentration ([3]; 5 μM, PBL): 2 h
uptake linearity ([3]; 5 μM, PBL): linear for one hour
time to maximum intracellular concentration (H9 cells; 5 μM, H-9 cells): 2 h
uptake linearity (H9 cells; 5 μM, H-9 cells): linear for one hour
reverse transcriptase inhibition, in words (reverse transcriptase): does not inhibit reverse transcriptase
mortality in comparison with placebo, in words (AIDS; Fischl et al. 1987): significant differences in mortality
progression of disease, in words (AIDS; individuals with AIDS-related complex, Fischl et al.): delay the progression of the disease

Cc1cn([C@H]2C[C@H](N=[N+]=[N-])[C@@H](COC(=O)C3=CN(C)C=CC3)O2)c(=O)[nH]c1=O [DP-AZT, 5,-[(1,4-dihydro-1-methyl-3-pyridinylcarbonyl)oxy] -3,-azido-2',3'dideoxythymidine]
metabolised at 4 h, 500 µM [4]: 50%
efficacy against HIV-1 relative to AZT, in words (HIV-1; 0.5 μM): significantly greater efficacy against HIV-1 than AZT had
P24 antigen in culture supernatant (HIV-1; [10]): 3,310 pg/ml
P24 antigen in culture supernatant (HIV-1; [11]): 475 pg/mL
P24 antigen in culture supernatant (HIV-1; [12]): 215 pg/mL
inhibition at 0.5 µM (HIV-1; [13]): 99.1%
inhibition at 5 µM (HIV-1; [14]): 99.9%
inhibition at 10 µM (HIV-1; [15]): 99.9%
inhibition at 0.5 µM (HIV-1; Human immunodeficiency virus 1, read-out: inhibition (p24 antigen)): 99%
air oxidation stability ([5]; during crystallization and drying): stable compound which does not undergo air oxidation
result of attempted chemical oxidation ([5]; hydrogen peroxide or sodium nitrate solution): hydrolysis of the ester producing AZT
hydrolysis by human plasma in vitro [6]: not hydrolyzed
less inhibition of [3H]-thymidine incorporation into bone marrow cells than AZT (mouse bone marrow cells; 5 μM): 44%
less inhibition of [3H]-thymidine incorporation into bone marrow cells than AZT (mouse bone marrow cells; 10 μM): 59%
bone marrow toxicity relative to AZT, in words (mouse bone marrow cells; 5 and 10 μM): significantly less toxic than AZT
hydrolysis by rat liver microsomes [7]: hydrolyzed by rat-liver microsomes (FIG. 4) in a manner similar to that observed in PBL
hydrolysis of the pro-drug [8]: complete hydrolysis of the pro-drug within four hours
time to maximum intracellular concentration ([3]; 5 μM, PBL): 2 h
uptake linearity ([3]; 5 μM, PBL): linear for one hour
higher intracellular concentration than [3H]-AZT ([3]; PBL, 5 μM, relative to AZT): at least 50%
time to maximum intracellular concentration (H9 cells; 5 μM, H-9 cells): 2 h
uptake linearity (H9 cells; 5 μM, H-9 cells): linear for one hour
higher intracellular concentration than [3H]-AZT (H9 cells; H-9 cells, 5 μM, relative to AZT): at least 50%

Cc1cn([C@H]2C[C@H](N=[N+]=[N-])[C@@H](COC(=O)CN3CCN(c4ccccc4)CC3)O2)c(=O)[nH]c1=O [N-phenylpiperazine analogue]
cellular uptake relative to AZT, in words (H9 cells): improved cellular uptake

CC1=C(/C=C/C(C)=C/C=C/C(C)=C/C(=O)O)C(C)(C)CCC1 [Retinoic acid]
HIV replication, in words (HIV): inhibit HIV replication somewhat

Cc1cn([C@H]2C[C@H](N=[N+]=[N-])[C@@H](COC(=O)c3ccc[n+](C)c3)O2)c(=O)[nH]c1=O [compound 2]
hygroscopicity [5]: hygroscopic

Cc1cn([C@H]2C[C@H](N=[N+]=[N-])[C@@H](COC(=O)C(N)Cc3ccccc3)O2)c(=O)[nH]c1=O (some centres unmarked) [phenylalanine AZT analogue]
cellular uptake relative to AZT, in words ([3]; PBL (FIG. 8)): improved over AZT with respect to cellular uptake

CC1=C(/C=C/C(C)=C/C=C/C(C)=C/C(=O)OC[C@H]2O[C@@H](n3cc(C)c(=O)[nH]c3=O)C[C@@H]2N=[N+]=[N-])C(C)(C)CCC1 [retinoic acid ester of AZT]
cellular uptake relative to AZT, in words (H9 cells): a substantial improvement over cellular uptake of AZT

Cc1cn([C@H]2C[C@H](N=[N+]=[N-])[C@@H](COC(=O)C(N)Cc3ccc(O)cc3)O2)c(=O)[nH]c1=O (some centres unmarked) [tyrosine AZT analogue]
cellular uptake relative to AZT, in words (H9 cells): improved over AZT with respect to cellular uptake

Vitamin A
activated macrophages and death rate, in words [9]: increased numbers of activated macrophages and decreased death rate

From patent publication US5026688A (Administrators of the Tulane Educational Fund, priority 1988, dated 1991)
